Measurements taken from ChEMBL document CHEMBL1201862, “PubChem BioAssay data set” (2004).
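Step 1: Grow cells in 96-well plates. Step 2: Expose to compound for 48 hours at 5 concentrations. Step 3: Interpolate endpoints linearly; if unreached, use highest concentration. The concentration for 50% growth inhibition is given as GI50.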 Active and inactive are the calls of the source. Rule as the data show it: active = GI50 up to about 1.1 µM and inactive = higher.

Legend:
Assay in all cases: NCI-60 cell line screen, 48 h
[1] = system: SF-539
[2] = system: SK-MEL-5
[3] = system: OVCAR-3
[4] = system: LOX IMVI
[5] = system: PC-3
[6] = system: CAKI-1
[7] = system: UACC-62
[8] = system: OVCAR-4
[9] = system: CCRF-CEM
[10] = system: HCT-116
[11] = system: TK-10
[12] = system: RXF 393
[13] = system: UO-31
[14] = system: MDA-N
[15] = system: MDA-MB-435
[16] = system: SR
[17] = system: K562
[18] = system: HL-60
[19] = system: HCC 2998

Row | Structure (SMILES) | GI50 [1] | GI50 [2] | GI50 [3] | GI50 [4] | GI50 [5] | GI50 [6] | GI50 [7] | GI50 [8] | GI50 [9] | GI50 [10] | GI50 [11] | GI50 [12] | GI50 [13] | GI50 [14] | GI50 [15] | GI50 [16] | GI50 [17] | GI50 [18] | GI50 [19]
1 | c1ccc2cc(NCNc3ccc4ccccc4c3)ccc2c1 | 29.3 µM (inactive) | 6.25 µM (inactive) | 5.69 µM (inactive) | 10.8 µM (inactive) | 15.5 µM (inactive) | 17.9 µM (inactive) | 14.7 µM (inactive) | 12.5 µM (inactive) | 11.8 µM (inactive) | 16.7 µM (inactive) | 21.7 µM (inactive) | 10.3 µM (inactive) | 13.7 µM (inactive) | 4.33 µM (inactive) | 1.78 µM (inactive) | 2.42 µM (inactive) | 0.951 µM (active) | 0.893 µM (active) | –
2 | CC(=O)Oc1ccc2c(c1)CC[C@@H]1C2CC[C@]2(C)C(=O)NC(=O)CC12 (stereo partly drawn) | > 100 µM (inactive) | > 100 µM (inactive) | > 100 µM (inactive) | – | > 100 µM (inactive) | > 100 µM (inactive) | > 100 µM (inactive) | > 100 µM (inactive) | > 100 µM (inactive) | > 100 µM (inactive) | > 100 µM (inactive) | > 100 µM (inactive) | > 100 µM (inactive) | > 100 µM (inactive) | > 100 µM (inactive) | 91.4 µM (inactive) | > 100 µM (inactive) | > 100 µM (inactive) | > 100 µM (inactive)
3 | CCC(=O)Nc1ccc(N2C(=O)C(Cl)C2c2ccc(SC)cc2)cc1 (stereo not drawn) | 26.9 µM (inactive) | 20.7 µM (inactive) | 81.5 µM (inactive) | 40.1 µM (inactive) | > 100 µM (inactive) | > 100 µM (inactive) | > 100 µM (inactive) | 33.5 µM (inactive) | 26.9 µM (inactive) | > 100 µM (inactive) | – | 34.8 µM (inactive) | > 100 µM (inactive) | > 100 µM (inactive) | 63.7 µM (inactive) | 40.6 µM (inactive) | 72.9 µM (inactive) | 78.3 µM (inactive) | 30.9 µM (inactive)
4 | CNC(c1ccncc1)C(NC)c1ccncc1 (stereo not drawn) | – | > 100 µM (inactive) | > 100 µM (inactive) | > 100 µM (inactive) | > 100 µM (inactive) | > 100 µM (inactive) | > 100 µM (inactive) | > 100 µM (inactive) | > 100 µM (inactive) | > 100 µM (inactive) | > 100 µM (inactive) | > 100 µM (inactive) | > 100 µM (inactive) | > 100 µM (inactive) | > 100 µM (inactive) | > 100 µM (inactive) | > 100 µM (inactive) | > 100 µM (inactive) | > 100 µM (inactive)
5 | CC(C)(NO)/C(=N\O)c1ccccc1 | – | – | > 10 µM (inactive) | – | > 10 µM (inactive) | > 10 µM (inactive) | – | > 10 µM (inactive) | > 10 µM (inactive) | > 10 µM (inactive) | > 10 µM (inactive) | > 10 µM (inactive) | > 10 µM (inactive) | > 10 µM (inactive) | > 10 µM (inactive) | > 10 µM (inactive) | > 10 µM (inactive) | > 10 µM (inactive) | > 10 µM (inactive)
6 | C=CCSc1nc2c(N)ncnc2n1C1OC(CO)C(O)C1O (stereo not drawn) | > 100 µM (inactive) | > 100 µM (inactive) | > 100 µM (inactive) | > 100 µM (inactive) | > 100 µM (inactive) | > 100 µM (inactive) | > 100 µM (inactive) | > 100 µM (inactive) | – | > 100 µM (inactive) | > 100 µM (inactive) | > 100 µM (inactive) | > 100 µM (inactive) | > 100 µM (inactive) | > 100 µM (inactive) | > 100 µM (inactive) | > 100 µM (inactive) | > 100 µM (inactive) | –
7 | Cc1ccc(-c2n[nH]c(=O)n2NC(=O)c2ccccc2C(=O)O)cc1 | > 100 µM (inactive) | > 100 µM (inactive) | > 100 µM (inactive) | > 100 µM (inactive) | > 100 µM (inactive) | > 100 µM (inactive) | > 100 µM (inactive) | – | – | > 100 µM (inactive) | > 100 µM (inactive) | > 100 µM (inactive) | > 100 µM (inactive) | > 100 µM (inactive) | > 100 µM (inactive) | > 100 µM (inactive) | > 100 µM (inactive) | > 100 µM (inactive) | > 100 µM (inactive)
8 | O=C1Nc2ccccc2S/C1=C\c1ccc(C(F)(F)F)cc1 | > 100 µM (inactive) | > 100 µM (inactive) | > 100 µM (inactive) | > 100 µM (inactive) | > 100 µM (inactive) | 4.59 µM (inactive) | > 100 µM (inactive) | > 100 µM (inactive) | – | > 100 µM (inactive) | > 100 µM (inactive) | > 100 µM (inactive) | 94 µM (inactive) | > 100 µM (inactive) | > 100 µM (inactive) | > 100 µM (inactive) | > 100 µM (inactive) | > 100 µM (inactive) | –
9 | N#Cc1c(-c2ccc([N+](=O)[O-])cc2)c2c([nH]c1=O)-c1ccccc1CCC2 | 52.7 µM (inactive) | 51.9 µM (inactive) | 31.8 µM (inactive) | 56.6 µM (inactive) | 80.2 µM (inactive) | > 100 µM (inactive) | 28.1 µM (inactive) | 65.6 µM (inactive) | – | 60.4 µM (inactive) | > 100 µM (inactive) | 30.9 µM (inactive) | 86.3 µM (inactive) | 94.2 µM (inactive) | 67.1 µM (inactive) | 29.6 µM (inactive) | 36.7 µM (inactive) | 43 µM (inactive) | 22.6 µM (inactive)
10 | [O-][n+]1cn[n+]([O-])c2ccccc21 | 22.3 µM (inactive) | > 10 µM (inactive) | – | 23.9 µM (inactive) | 11.7 µM (inactive) | 18.9 µM (inactive) | 16.3 µM (inactive) | – | 3.46 µM (inactive) | 13.3 µM (inactive) | > 100 µM (inactive) | 20.7 µM (inactive) | 28.3 µM (inactive) | 20.1 µM (inactive) | 67.3 µM (inactive) | 18.4 µM (inactive) | 6.95 µM (inactive) | 5.04 µM (inactive) | 27.1 µM (inactive)
11 | OC[C@H]1CC(c2nn[nH]n2)[C@H](O)[C@@H]1O (stereo partly drawn) | > 100 µM (inactive) | > 100 µM (inactive) | > 100 µM (inactive) | > 100 µM (inactive) | > 100 µM (inactive) | – | > 10 µM (inactive) | > 100 µM (inactive) | > 100 µM (inactive) | > 100 µM (inactive) | > 100 µM (inactive) | 8.13 µM (inactive) | > 100 µM (inactive) | > 100 µM (inactive) | > 100 µM (inactive) | > 100 µM (inactive) | > 100 µM (inactive) | > 100 µM (inactive) | > 100 µM (inactive)
12 | c1ccc(Cn2c(-c3ccc(-c4ccccc4)cc3)cc3ccccc32)cc1 | > 100 µM (inactive) | > 100 µM (inactive) | > 100 µM (inactive) | > 100 µM (inactive) | > 100 µM (inactive) | > 100 µM (inactive) | > 100 µM (inactive) | > 100 µM (inactive) | > 100 µM (inactive) | > 100 µM (inactive) | > 100 µM (inactive) | – | > 100 µM (inactive) | > 100 µM (inactive) | > 100 µM (inactive) | > 100 µM (inactive) | – | > 100 µM (inactive) | > 100 µM (inactive)
13 | Cc1ccc(S(=O)(=O)C2=C([Si](C)(C)C)C3CC2[C@@H]2C4C=CC(CC4)[C@H]32)cc1 (stereo partly drawn) | 25.6 µM (inactive) | > 100 µM (inactive) | 93.8 µM (inactive) | > 100 µM (inactive) | 35.3 µM (inactive) | 82.6 µM (inactive) | 60.5 µM (inactive) | > 100 µM (inactive) | – | > 100 µM (inactive) | 27 µM (inactive) | 33.5 µM (inactive) | > 100 µM (inactive) | > 100 µM (inactive) | > 100 µM (inactive) | > 100 µM (inactive) | > 100 µM (inactive) | > 100 µM (inactive) | > 100 µM (inactive)
14 | O=C1C=CC(=O)N1n1c(-c2ccccc2)n[nH]c1=O | > 100 µM (inactive) | > 100 µM (inactive) | > 100 µM (inactive) | – | > 100 µM (inactive) | > 100 µM (inactive) | > 100 µM (inactive) | > 100 µM (inactive) | > 100 µM (inactive) | > 100 µM (inactive) | > 100 µM (inactive) | > 100 µM (inactive) | – | > 100 µM (inactive) | > 100 µM (inactive) | > 100 µM (inactive) | > 100 µM (inactive) | > 100 µM (inactive) | > 100 µM (inactive)
15 | O=C1C2CC=CCC2C(=O)N1n1c(Cc2ccc(Cl)cc2)n[nH]c1=O (stereo not drawn) | – | > 100 µM (inactive) | > 100 µM (inactive) | > 100 µM (inactive) | > 100 µM (inactive) | > 100 µM (inactive) | > 100 µM (inactive) | > 100 µM (inactive) | > 100 µM (inactive) | > 100 µM (inactive) | > 100 µM (inactive) | > 100 µM (inactive) | > 100 µM (inactive) | > 100 µM (inactive) | > 100 µM (inactive) | > 100 µM (inactive) | > 100 µM (inactive) | > 100 µM (inactive) | > 100 µM (inactive)
16 | Clc1ccc(C(c2ccc(Cl)cc2)c2cncnc2)cc1 | – | 13.2 µM (inactive) | 14.7 µM (inactive) | 15.8 µM (inactive) | 14.2 µM (inactive) | 18.6 µM (inactive) | 15.2 µM (inactive) | 15.2 µM (inactive) | 17.5 µM (inactive) | 13.9 µM (inactive) | 16.9 µM (inactive) | 12.6 µM (inactive) | 11.9 µM (inactive) | 14.2 µM (inactive) | 13.7 µM (inactive) | 31.8 µM (inactive) | 21.9 µM (inactive) | 22.9 µM (inactive) | –
